Laboratory results from PubChem BioAssay (NCI).
Several values for one entry are separate records, joined by “and”; a condition that tells them apart may be missing. Equal entries are not always repeated.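 Following 48 hours of exposure in 96-well plates, responses at five concentrations were used to interpolate endpoints linearly. GI50: concentration for 50% inhibition of growth. TGI marks complete inhibition of growth.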

Experiments:
Test in all cases: NCI-60 cell line screen, 48 h
[1] = tested on: HCT-116 colon
[2] = tested on: A498 renal
[3] = tested on: SK-MEL-5 melanoma
[4] = tested on: HCT-15 colon
[5] = tested on: SF-268 CNS
[6] = tested on: NCI-H226 lung
[7] = tested on: CAKI-1 renal
[8] = tested on: OVCAR-8 ovarian
[9] = tested on: HOP-92 NSCLC
[10] = tested on: MCF7 breast

| SMILES | GI50 [1] [µM] | TGI [1] | TGI [2] [µM] | GI50 [3] [µM] | TGI [3] | GI50 [4] [µM] | TGI [4] | GI50 [5] [µM] | TGI [5] | TGI [6] [µM] | GI50 [7] [µM] | TGI [7] | GI50 [8] [µM] | TGI [8] | TGI [9] [µM] | GI50 [6] [µM] | GI50 [9] [µM] | GI50 [10] [µM] | TGI [10] [µM] | GI50 [2] [µM] |
| --- | --- | --- | --- | --- | --- | --- | --- | --- | --- | --- | --- | --- | --- | --- | --- | --- | --- | --- | --- | --- |
| CC(=O)OCC1OC(OC2CC3C(C)(C)C(O)CC[C@]3(C)C3CCC45CC4(CC[C@H]5C(C)CC(O)C4OC4(C)C)[C@]23C)C(O)C(O)C1O (some centres not stated) | 3.57 | 16.3 µM and 21.8 µM | 51.8 | 5.65 | 10.2 µM and 17.6 µM | 14.2 | 15.3 µM and 27.6 µM | 11 | 13.4 µM and 28.4 µM | 16.1 | 19.6 | 17.1 µM and 34.4 µM | 8.97 | 14.4 µM and 23.8 µM | 14.6 | – | – | – | – | – |
| CO[C@@H]1/C=C(C)/C=C/[C@@H](C)/C=C(\C)C(=O)OC(/C(C)=C/C=C(\C)CNC(=O)[C@H](CO)NC=O)[C@@H](C)/C=C/C=C/[C@H](OC)CC/C=C(C)/C=C/C1 (some centres not stated) | < 0.005 | 6.11 µM | – | < 0.005 | < 0.005 µM | 0.0225 | 6.88 µM | < 0.005 | 1.09 µM | 0.221 | < 0.005 | 0.592 µM | 0.0105 | 3.18 µM | 0.0852 | < 0.005 | < 0.005 | < 0.005 | 9.14 | – |
| CCCCOC(=O)NC(=O)c1cn(CCSCCOC(=O)NCCCCCCNC(=O)OCCSCCn2cc(C(=O)NC(=O)OCCCC)c(=O)[nH]c2=O)c(=O)[nH]c1=O | – | > 100 µM | 64.7 | – | > 100 µM | – | > 100 µM | – | > 100 µM | – | – | – | – | – | 71.8 | – | – | – | – | – |
| NC(=O)C(c1ccccc1)N1CCOCC1 (configuration not stated) | – | > 100 µM | > 100 | – | > 100 µM | – | > 100 µM | – | > 100 µM | > 100 | – | > 100 µM | – | > 100 µM | > 100 | – | – | – | – | – |
| c1ccc2c(c1)[nH]c1cnc3c4cccnc4[nH]c3c12 | – | 30.8 µM | > 100 | – | 39.9 µM | – | 31.9 µM | – | 36.1 µM | 64 | – | 33.7 µM | – | 32 µM | 60.7 | – | – | – | – | – |
| CC(=O)OC1CC2(O)C3CCC4CC(O)CCC4(C)C3CCC2(C)C1C1=CC(=O)OC1 (configuration not stated) | – | 0.186 µM | 0.392 | – | 0.116 µM | – | 0.253 µM | – | 0.15 µM | 0.784 | – | 0.13 µM | – | 0.272 µM | 19.3 | – | – | – | – | – |
| O=C(C(=O)N1CC2C=CC1CC2)c1c[nH]c2ccccc12 (configuration not stated) | – | > 100 µM | > 100 | – | > 100 µM | – | > 100 µM | – | > 100 µM | > 100 | – | > 100 µM | – | > 100 µM | > 100 | – | – | – | – | – |
| O=C1c2c(n(Cc3ccccc3)c(=O)n2Cc2ccccc2)C(=O)N1Cc1ccccc1 | – | > 100 µM | > 100 | – | > 100 µM | – | > 100 µM | – | > 100 µM | > 100 | – | > 100 µM | – | > 100 µM | > 100 | – | – | – | – | – |
| O=C(Cc1cccc(OC(F)(F)F)c1)Nc1ccc(CCCCc2nnc(NC(=O)Cc3ccccn3)s2)nn1 | 16.2 | > 100 µM | – | 16.1 | > 100 µM | > 100 | > 100 µM | 13.6 | 39.1 µM | 54.1 | 4.81 | > 100 µM | 15.8 | 54.8 µM | 25.9 | 15.1 | 6.19 | 16.5 | > 100 | – |
| COc1ccccc1NC(=O)C1=C(C)NC(C)=C(C(=O)Nc2ccccc2OC)C1c1ccc(C)cc1 | – | > 100 µM | 82.7 | – | > 100 µM | – | > 100 µM | – | > 100 µM | > 100 | – | > 100 µM | – | > 100 µM | > 100 | – | – | – | – | – |
| COc1ccc(/C=C\c2cc(OC)c(OC)c(OC)c2)cc1OC(=O)CCC(=O)O | – | – | – | < 0.0001 | – | – | > 100 µM | – | 45.1 µM | < 0.0001 | < 0.0001 | > 100 µM | – | 69.6 µM | – | – | – | – | > 100 | < 0.0001 |
| O=C1C(=O)N(c2ccc(Cl)cc2Cl)C(=O)C(=O)C1c1nc2ccccc2o1 | – | > 100 µM | > 100 | – | > 100 µM | – | > 100 µM | – | > 100 µM | > 100 | – | > 100 µM | – | > 100 µM | > 100 | – | – | – | – | – |
| CC1=CCC23C(C1)OC(Br)(C=CC2(C)O)C3(C)C (configuration not stated) | – | > 100 µM | > 100 | – | > 100 µM | – | – | – | > 100 µM | > 100 | – | > 100 µM | – | > 100 µM | > 100 | – | – | – | – | – |
| CC(=O)CCCCO | – | > 100 µM | > 100 | – | > 100 µM | – | > 100 µM | – | > 100 µM | – | – | > 100 µM | – | > 100 µM | > 100 | – | – | – | – | – |
| O=C1CN(C(=O)c2ccccc2)Cc2[nH]c3ccccc3c21 | – | > 100 µM | – | – | > 100 µM | – | > 100 µM | – | – | > 100 | – | – | – | > 100 µM | > 100 | – | – | – | – | – |
| CCOC(=O)C1SC(=Nc2ccc(Cl)c(Cl)c2)N=C1C (configuration not stated) | – | – | 84.3 | – | – | – | > 100 µM | – | > 100 µM | 67.7 | – | > 100 µM | – | > 100 µM | – | – | – | – | – | – |
| C=CCC(N[C@H](CO)c1ccccc1)c1cn(C(=O)OCC)c2ccccc12 (some centres not stated) | 14.7 | 28 µM | – | 17.5 | 32.8 µM | 18.6 | 39.4 µM | 32.1 | 89.9 µM | 31 | 12.4 | 26.9 µM | 13.4 | 27.7 µM | 35.7 | 15.2 | 18 | 35.2 | > 100 | – |
| CN1CC(C(=O)C2C(=O)c3ccccc3C2=O)C(=O)C(=O)C(C(=O)C2C(=O)c3ccccc3C2=O)C1 (configuration not stated) | – | > 100 µM | > 100 | – | – | – | > 100 µM | – | > 100 µM | – | – | > 100 µM | – | > 100 µM | > 100 | – | – | – | – | – |
| CC(C)(C)C(=O)ON1N=NC2C3CC(OCc4ccccc4)(OCc4ccccc4)C(O3)C21 (configuration not stated) | – | – | > 100 | – | 31.9 µM | – | 56.3 µM | – | 88.2 µM | 40 | – | > 100 µM | – | – | 27.2 | – | – | – | – | – |
| CCOC(=O)/C=C/C(C(=O)/C=C/c1ccc(O)c(OC)c1)=C(O)\C=C\c1ccc(O)c(OC)c1 | 1.31 | 3.24 µM | – | 2.22 | 6 µM | 2.27 | 6.99 µM | 11.1 | 95.1 µM | 5.1 | 4.5 | 17.5 µM | 2.21 | 5.91 µM | 30.1 | 1.67 | 10.5 | 7.52 | 67.5 | – |
